Experimental findings from publication PMC6539868, “Syntheses and Biological Studies of Cu(II) Complexes Bearing Bis(pyrazol-1-yl)- and Bis(triazol-1-yl)-acetato Heteroscorpionate Ligands” (Molecules, 2019) are described below.

Data set [1] has as its system LoVo cells. The data set is described as follows: Cellular uptake (intracellular copper by GF-AAS). Format: cell-based, human. Conditions: 24 h, 2 μM. The procedure:
LoVo cells (2.5 × 10^6) were seeded in 75 cm^2 flasks in growth medium (20 mL). After overnight incubation, the medium was replaced, and the cells were treated with tested compounds for 24 h. Cell monolayers were then processed and mineralized as previously described. The sample was analyzed for copper by using a Varian AA Duo graphite furnace atomic absorption spectrometer (Varian, Palo Alto, CA, USA) at the wavelength of 324 nm. The calibration curve was obtained using known concentrations of standard solutions purchased from Sigma Chemical Co.
With the purpose of underling a possible correlation between cellular uptake efficiency and cytotoxicity, LoVo cells were treated for 24 h with equimolar concentrations (2 μM) of copper(II) complexes and the intracellular copper amount was quantified by means of Graphite Furnace Atomic Absorption Spectrometry (GF-AAS) analysis. […] In fact, the intracellular copper content detected in LoVo cells follows the same cytotoxicity trend 1 > 2 > 3.

Data set [2] deals with LoVo cells. The data set is described as follows: Transmission electron microscopy (TEM) analysis. Format: cell-based, human. Conditions: IC50 of compound, 24 h. The method, then:
Approximately 10^6 LoVo cells were seeded in 24-well plates and, after 24 h incubation, treated with 1 and incubated further 24 h. Samples were then washed with cold PBS, harvested and fixed with 1.5% glutaraldehyde buffer with 0.2 M sodium cacodylate, pH 7.4. After washing with buffer and post-fixation with 1% OsO4 in 0.2 M cacodylate buffer, samples were desiccated and embedded in epoxy resin (Epon Araldite). Sagittal serial sections of about 1 μm were counterstained with toluidine blue; subsequently, sections of 90 nm were stained with uranyl acetate and lead citrate.
Micrographs were taken with a Hitachi H-600 electron microscope (Hitachi, Tokyo, Japan) at 75 kV. All photos were elaborated in Corel Draw 11 (Corel Corporation, Ottawa, ON, Canada).
Transmission electron microscopy (TEM) analysis has been performed in order to investigate the influence of copper compounds on LoVo cells morphology and their organelles.

A further data set has as its system A431. The data set is described as follows: MTT cytotoxicity assay, 2D monolayer. Format: cell-based, human. Conditions: 72 h, MTT test, cervical carcinoma; read-out: IC50 (µM) ± S.D. A431. From the text:
(§1) Human lung (A549), colon (HCT-15 and LoVo) and breast (MCF-7) carcinoma cell lines were obtained from American Type Culture Collection (ATCC, Rockville, MD, USA). Human pancreatic BxPC3 carcinoma cells were obtained from European Collection of Cell Culture (ECACC, Salisbury, UK). Human ovarian 2008 cancer cells were kindly provided by Prof. G. Marverti (Dept. of Biomedical Science of Modena University, Modena, Italy). Human squamous cervical A431 carcinoma cells were kindly provided by Prof. F. Zunino (Division of Experimental Oncology B, Istituto Nazionale dei Tumori, Milan, Italy). The LoVo-OXP cells were obtained as previously described. Cell lines were maintained in culture in the logarithmic phase at 37 °C in a 5% carbon dioxide atmosphere using the following media added of 10% fetal calf serum (Euroclone, Milan, Italy), antibiotics (50 units/mL penicillin and 50 μg/mL streptomycin), and 2 mM L-glutamine: (i) RPMI-1640 medium (Euroclone) for HCT-15, A431, MCF-7, BxPC3 and 2008 cells; (ii) F-12 HAM’S (Sigma Chemical Co.) for A549, LoVo and LoVo-OXP cells.
(§2) The growth inhibitory effect towards 2D tumor cell lines was evaluated by means of MTT assay as previously described. IC50 values were calculated by four parameters logistic (4-PL) model. All the values are the means ± SD of not less than five measurements starting from three different cell cultures.
(§3) The in vitro antitumor activity of copper(II) complexes 1–3 and the uncoordinated ligands [HC(COOH)(pz^Me2)2], [HC(COOH)(pz)2] and [HC(COOH)(tz)2] was evaluated against a panel of human cancer cell lines derived from solid tumors. Adherent cell lines representative of cervical (A431), pancreatic (BxPC3) colon (HCT-15), breast (MCF-7), lung (A549), and ovarian (2008) cancers, differently sensitive to cisplatin, were exposed to the indicated compounds for 72 h.
For orientation: Tetrazolium dyes change colour on reduction, which living cells bring about.

The test system of the next data set is MCF-7. In words: MTT cytotoxicity assay, 2D monolayer. Format: cell-based, human. Conditions: 72 h, MTT test, breast carcinoma; read-out: IC50 (µM) ± S.D. MCF-7.
Text: as §1, §2, §3

In a further data set the test system is HCT-15. The data set is described as follows: MTT cytotoxicity assay, 2D monolayer. Format: cell-based, human. To be noted: 72 h.
Text: as §1, §2, §3

Another data set deals with BxPC3. The data set is described as follows: MTT cytotoxicity assay, 2D monolayer. Format: cell-based, human. To be noted: 72 h, MTT test, pancreatic carcinoma; read-out: IC50 (µM) ± S.D. BxPC3.
Text: as §1, §2, §3

Another data set deals with A549. In words: MTT cytotoxicity assay, 2D monolayer. It counts as cell-based, human. Conditions: 72 h.
Text: as §1, §2, §3

Another data set has as its system 2008. The data set is described as follows: MTT cytotoxicity assay, 2D monolayer. Format: cell-based, human. Conditions: 72 h, MTT test, ovarian cancer; read-out: IC50 (µM) ± S.D. 2008.
Text: as §1, §2, §3

The subject of data set [3] is HCT-15 colon cancer cell spheroids. In words: Acid phosphatase (APH) assay in 3D spheroids. It counts as cell-based, human. To be noted: 72 h, APH test, read-out: IC50 (µM) ± S.D. HCT-15 spheroids. The method, then: Spheroid cultures were obtained by seeding 2.5 × 10^3 HCT-15 cells/well in round bottom non-tissue culture treated 96 well-plate (Greiner Bio-one, Kremsmünster, Austria) in phenol red free RPMI-1640 medium (Sigma Chemical Co.), containing 10% FCS and supplemented with 20% methyl cellulose stock solution.
An APH modified assay was used for determining cell viability in 3D spheroids, as previously described. IC50 values were calculated with a four parameter logistic (4-PL) model. All the values are the means ± SD of not less than four independent experiments.
The in vitro antitumor efficacy of the newly developed compounds was also tested on 3D colon cancer cell culture models. Differently from 2D monolayer culture, 3D spheroid cell culture systems comprise cancer cells in various cell growth stages. Consequently, the multicellular cancer spheroid model is recognized to better reflect the tumor mass in vivo regarding drug permeation, cell interactions, gene expression, hypoxia and nutrient gradients with respect to monolayer cell cultures. Table 4 summarizes the IC50 values obtained after treatment of 3D cell spheroids of human HCT-15 colon cancer cells with copper(II) compounds as well as with cisplatin, as reference drug. In accordance with 2D chemosensitivity assays, complex 3 was scarcely effective, whereas complex 1 was as effective as cisplatin. […] We hypothesize that in this non-proliferative and very resistant tumor model the higher lipophilicity of 1, due to the presence of methyl substituents on the pyrazolyl rings, might be responsible for the enhanced compound penetration in the core area of spheroids.

The next data set is described as follows: Stability to air. It counts as physicochemical. Conditions: also as solutions.
The test system of another data set is LoVo-OXP. The data set is described as follows: MTT cytotoxicity assay, cross-resistance profile. Format: cell-based, human.
Text: as §1, §2
(§4) HCT-15 colon cancer cells are notoriously poorly chemosensitive to cisplatin. […] As for cisplatin, the clinical effectiveness of OXP is seriously hampered by the cancer cell resistance and, at present, few other drug regimens are available for patients with OXP-refractory colorectal cancers. […] The RF values (calculated by dividing IC50 for resistant cells by those for sensitive ones) were about 10 times lower than that of OXP, excluding the occurrence of cross-resistance phenomena.

The test system of the next data set is LoVo. The data set is described as follows: MTT cytotoxicity assay, cross-resistance profile. It counts as cell-based, human. To be noted: 72 h, MTT test, oxaliplatin-sensitive colon cancer cells; read-out: IC50 (µM) ± S.D. LoVo.
Text: as §1, §2, §4

Data set [4] relates to panel of human cancer cell lines derived from solid tumors. In words: MTT cytotoxicity, whole panel of human cancer cell lines. Format: cell-based. To be noted: mean over the cell lines of Table 2, 72 h. The procedure: as §2, §3, §4
The next data set is described as follows: Solubility. Format: physicochemical.
The test system of data set [5] is LoVo cells. In words: ROS production (CM-H2DCFDA). Format: cell-based, human. Conditions: 15 μM complexes, antimycin 3 μM. The procedure: The production of ROS was measured in LoVo cells (10^4 per well) grown for 24 h in a 96-well plate in RPMI medium without phenol red. Samples were loaded with 10 μM 5-(and-6)-chloromethyl-2′,7′-dichlorodihydrofluorescein diacetate acetyl ester (CM-H2DCFDA) (Molecular Probes-Invitrogen, Eugene, OR, USA) for 25 min, in the dark. Afterward, each well was washed with PBS and incubated with tested complexes. The fluorescence intensity in each well was assessed by means of a Fluoroskan Ascent FL (Labsystem, Vantaa, Finland) plate reader (ex: 485 nm; em: 527 nm). Antimycin (3 μM, Sigma), a well-known inhibitor of the electron transport chain at Complex III level, was used as reference compound.
It has been documented that oxidative stress and generation of ROS play a significant role in anticancer activity of copper(II) compounds [22, 81]. To explore the molecular mechanisms underlying the cytotoxicity of newly synthetized copper(II) complexes, cellular production of ROS upon treatment with 15 μM of complex 1, 2 or 3 was monitored in LoVo cells by using the peroxide-sensitive fluorescent probe CM-H2DCFDA (Figure 5). […] Conversely, for all copper complexes there was no ROS induction.

With `Cc1cc(C)n(C(C(=O)O)n2nc(C)cc2C)n1.Cc1cc(C)n(C(C(=O)[O-])n2nc(C)cc2C)n1.[Cu+2].[O-][Cl+3]([O-])([O-])[O-]` [compound 1, [HC(COOH)(pz^Me2)2]Cu[HC(COO)(pz^Me2)2]·ClO4], in the data set on LoVo cells [1], the “cellular uptake efficiency (intracellular copper amount)” value is reported as “taken up slightly more efficiently than complex 2”. The “cytoplasmic vacuolization (TEM morphology)” value in the data set with LoVo cells [2] was “massive cytoplasmic vacuolization”. Further, the “hallmarks of apoptosis (TEM morphology)” value in the data set on LoVo cells [2] is “no classical hallmarks of apoptosis”. Besides, the IC50 (in general, the point on the concentration scale where inhibition reaches its midpoint) in the data set on A431 amounted to 3.8 ± 1.1 µM; in the data set with MCF-7, 10.5 ± 2.1 µM; with HCT-15 (MTT test, colon carcinoma, read-out: IC50 (µM) ± S.D. HCT-15), 8.5 ± 0.6 µM; in the data set on BxPC3 it was 2.5 ± 0.4 µM; in the data set with A549 (MTT test, lung carcinoma, read-out: IC50 (µM) ± S.D. A549), 3.6 ± 0.5 µM; in the data set with 2008, 10.8 ± 1.3 µM. The IC50 in [3] is 67.8 ± 14.9 µM; in the data set with LoVo-OXP (72 h, MTT test, oxaliplatin-resistant colon cancer cells, read-out: IC50 (µM) ± S.D. LoVo-OXP), 5.2 ± 0.6 µM; in the data set on LoVo, 4.2 ± 0.9 µM; in [4] it was 6.5 µM. Further, the “fold more effective than cisplatin” value in the data set with HCT-15 (HCT-15 cells, MTT) was “roughly 2 fold”; in the data set on A549 (A549 cells, MTT) it was “roughly 2 fold”. The air stability entry in “Stability to air” is given as “air stable even as solutions”. In the data set with LoVo-OXP (LoVo-OXP/LoVo), the “RF times lower than that of OXP” value is given as “about 10 times”. Further, in the data set on LoVo-OXP (RF = IC50 (resistant cells)/IC50 (wild-type cells), LoVo-OXP/LoVo), the “RF (resistance factor)” value came to 1.2. Also, in “Solubility” (methanol, DMSO, acetonitrile), the “solubility in methanol, DMSO and acetonitrile” value is “soluble”. Moreover, in the data set “Solubility” (water), the solubility in water entry is on record as “slightly soluble”.
Turning to Antimycin, in the data set on LoVo cells [5], the ROS production entry is on record as “markedly stimulated ROS formation”.
